Source: paper PMC12481576, “Barbituric Acid Derivatives as Covalent Inhibitors of Leishmania braziliensis Dihydroorotate Dehydrogenase” (Journal of Medicinal Chemistry, 2025)
Converted amounts (≈) assume the structure as drawn. Where two headings read alike, the source gives them in different places.

Tests used:
[1] = Kinetic solubility assay in PBS pH 7.4; type: physicochemical; conditions: kinetic from dmso stock, 1% DMSO; for solubility kinetic at 2 h: 25 °C, pH 7.4, aqueous buffer, PBS pH 7.4, 200 μM test conc, 2 h at 25 °C; for solubility at 2 h: aqueous buffer, PBS pH 7.4, 200 µM, 2 hours at 25°C
Description: The plate was incubated for 2 h at 25 °C. The precipitates on the incubation plate were removed by filtration and the filtrates were quantified by LC-MS/MS. Calibration curves were prepared for each compound by using 5–6 points. Samples were analyzed by UV–vis.

LbDHODH [2] = target: T1, LbDHODH (Leishmania braziliensis, UniProt E9AI53); assay: biochemical; conditions: for inhibition at 100 µM: read-out: enzyme inhibition
T1 sequence (E9AI53 entry or part of it): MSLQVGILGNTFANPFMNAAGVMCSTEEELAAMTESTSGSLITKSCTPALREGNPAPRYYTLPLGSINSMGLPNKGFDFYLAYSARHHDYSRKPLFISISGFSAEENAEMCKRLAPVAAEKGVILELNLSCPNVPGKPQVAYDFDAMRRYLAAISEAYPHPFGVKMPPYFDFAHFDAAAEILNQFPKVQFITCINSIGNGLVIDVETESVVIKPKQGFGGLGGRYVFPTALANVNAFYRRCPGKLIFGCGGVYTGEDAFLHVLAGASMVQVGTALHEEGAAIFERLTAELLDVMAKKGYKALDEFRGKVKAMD
In short: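 Covalent inactivation constant kinact/KI came from linear fitting of early kobs values against inhibitor concentration. Activity followed by A610 (DCIP, DHO substrate) every 3 s over 60 s in Tris pH 8.15/KCl/Triton X-100 buffer, in triplicate; single-point 100 μM screen run at 0 h and after 4-h preincubation.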

LbDHODH [3] = target: T1, LbDHODH; assay: Kinact/KI determination from LbDHODH progress curves (kobs vs inhibitor concentration); type: biochemical; conditions: for kinact/KI: slope of kobs vs inhibitor concentration
Description: The Kinact/Ki ratio is a key parameter for evaluating the potency of covalent inhibitors, as it quantitatively measures both their reactivity and affinity for the target enzyme. This parameter integrates two crucial aspects: KI, which reflects the inhibitor’s binding affinity, and Kinact, which describes the rate at which the covalent bond is formed. […] Therefore, this ratio is essential for ranking covalent inhibitors, optimizing their potency, and guiding structure-based drug design.
The experiments were performed in a 96-well microplate reader (SpectraMax Plus 384, Molecular Devices, USA), containing the […] of the buffer 60 mM DCIP, 50 mM Tris pH 8.15, 150 mM KCl, 0.1% Triton X-100, 50 μM DHO and 10 μM of LbDHODH at 165 nM. The reaction was monitored every 3 s at 610 nm over a period of 60 s, in triplicate, for the control and each concentration of the inhibitor. All assays were performed without incubation (0h) and with 4-h preincubation of the inhibitor with LbDHODH, using 5% DMSO (v/v) as control. […] To determine the IC50 values, the activity percentage data were fitted as a function of the concentration logarithm by nonlinear regression analysis (variable hillslope) using Prism 9.0 software (GraphPad Software, USA). […] The resulting kobs values were plotted as a function of inhibitor concentration, and the data in the initial linear region was fit to determine the slope, which is kinact/KI. All regressions were performed with GraphPad Prism 9.

THP-1 cells = assay: Cell viability / cytotoxicity assay (PrestoBlue, 72 h); type: cell-based; conditions: THP-1 cell line, 72 h, max 200 μM
In short: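 Viability was measured with PrestoBlue fluorescence (560/590 nm, 2 h) after 72 h compound exposure at 37 °C. Test concentrations descended from 200 μM. The THP-1 monocytes had first been differentiated with 150 ng/mL phorbol myristate acetate for 48 h, then rested 24 h.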

[4] = 0 h, pH 8.15, read-out: LbDHODH Activity±SD (%)
[5] = 4 h, pH 8.15, read-out: LbDHODH Activity±SD (%)
[6] = IC50 0 h, LbDHODH, without preincubation
[7] = IC50 4 h, LbDHODH, 4-h preincubation
[8] = read-out: Single dose (0h) % activity
[9] = read-out: Single dose (4h) % activity

Row | Compound | solubility kinetic at 2 h [1] [µM] | solubility at 2 h [1] [µg/mL] | activity at 0.390625 µM (LbDHODH [2]; [4]) [%] | activity at 0.78125 µM (LbDHODH [2]; [4]) [%] | activity at 1.5625 µM (LbDHODH [2]; [4]) [%] | activity at 3.125 µM (LbDHODH [2]; [4]) [%] | activity at 6.25 µM (LbDHODH [2]; [4]) [%] | activity at 12.5 µM (LbDHODH [2]; [4]) [%] | activity at 25 µM (LbDHODH [2]; [4]) [%] | activity at 50 µM (LbDHODH [2]; [4]) [%] | activity at 100 µM (LbDHODH [2]; [4]) [%] | activity at 0.390625 µM (LbDHODH [2]; [5]) [%] | activity at 0.78125 µM (LbDHODH [2]; [5]) [%] | activity at 3.125 µM (LbDHODH [2]; [5]) [%] | activity at 12.5 µM (LbDHODH [2]; [5]) [%] | activity at 50 µM (LbDHODH [2]; [5]) [%] | IC50 (LbDHODH [2]; [6]) [µM] | IC50 (LbDHODH [2]; [7]) [µM] | activity at 100 µM (LbDHODH [2]; [8]) [%] | activity at 100 µM (LbDHODH [2]; [9]) [%] | further results
1 | COc1cc(C=C2C(=O)NC(=O)NC2=O)ccc1O [2c, 5-(4-Hydroxy-3-methoxybenzylidene)pyrimidine-2,4,6(1H,3H,5H)-trione] | 195 (≈ 51 µg/mL) | 51 (≈ 194 µM) | 96 ± 9 | 92 ± 9 | 82 ± 23 | 77 ± 7 | 46 ± 4 | 36 ± 8 | 22 ± 2 | 13 ± 1 | 7 ± 4 | 102 ± 10 | 97 ± 9 | 90 ± 6 | 83 ± 8 | 62 ± 8 | 7 ± 1 | 89 ± 4 | 7 ± 3 | 21 ± 5 | activity at 200 µM (LbDHODH [2]; [4]): 5 ± 0.4%; activity at 400 µM (LbDHODH [2]; [4]): 6 ± 1%; activity at 1.5625 µM (LbDHODH [2]; [5]): 96 ± 12%; activity at 6.25 µM (LbDHODH [2]; [5]): 86 ± 7%; activity at 25 µM (LbDHODH [2]; [5]): 72 ± 5%; activity at 100 µM (LbDHODH [2]; [5]): 52 ± 6%; activity at 200 µM (LbDHODH [2]; [5]): 32 ± 2%; activity at 400 µM (LbDHODH [2]; [5]): 23 ± 3%
2 | O=C1NC(=O)C(=Cc2ccc(O)c([N+](=O)[O-])c2)C(=O)N1 [2d, 5-(4-Hydroxy-3-nitrobenzylidene)pyrimidine-2,4,6(1H,3H,5H)-trione] | 190 (≈ 52.7 µg/mL) | 52.7 (≈ 190 µM) | 99 ± 9 | 75 ± 6 | 60 ± 5 | 46 ± 5 | 25 ± 2 | 13 ± 1 | 11 ± 3 | 8 ± 1 | 6 ± 1 | 75 ± 7 | 76 ± 8 | 71 ± 6 | 52 ± 6 | 39 ± 7 | 3 ± 1 | 13 ± 2 | 5 ± 2 | 16 ± 3 | activity at 200 µM (LbDHODH [2]; [4]): 9 ± 4%; activity at 400 µM (LbDHODH [2]; [4]): 6 ± 2%; activity at 1.5625 µM (LbDHODH [2]; [5]): 72 ± 11%; activity at 6.25 µM (LbDHODH [2]; [5]): 57 ± 7%; activity at 25 µM (LbDHODH [2]; [5]): 49 ± 7%; activity at 100 µM (LbDHODH [2]; [5]): 28 ± 3%; activity at 200 µM (LbDHODH [2]; [5]): 21 ± 8%; activity at 400 µM (LbDHODH [2]; [5]): 12 ± 4%; Kobs (LbDHODH [3]; inhibitor 0.18 µM): 0.003357 ± 0.002 s⁻¹; Kobs (LbDHODH [3]; inhibitor 0.390625 µM): 0.003416 ± 0.002 s⁻¹; Kobs (LbDHODH [3]; inhibitor 0.78125 µM): 0.003424 ± 0.002 s⁻¹; Kobs (LbDHODH [3]; inhibitor 1.5625 µM): 0.003613 ± 0.002 s⁻¹; Kobs (LbDHODH [3]; inhibitor 3.125 µM): 0.0038 ± 0.002 s⁻¹; Kobs (LbDHODH [3]; inhibitor 6.25 µM): 0.004522 ± 0.002 s⁻¹; Kobs (LbDHODH [3]; inhibitor 12.5 µM): 0.004748 ± 0.002 s⁻¹; Kobs (LbDHODH [3]; inhibitor 25 µM): 0.005571 ± 0.002 s⁻¹; Kobs (LbDHODH [3]; inhibitor 100 µM): 0.01122 ± 0.001 s⁻¹; Kobs (LbDHODH [3]; inhibitor 200 µM): 0.01796 ± 0.003 s⁻¹; kinact/KI (LbDHODH [3]): 73 M⁻¹ s⁻¹
3 | O=C1NC(=O)C(=Cc2ccc(N3CCOCC3)cc2[N+](=O)[O-])C(=O)N1 [2e, 5-(4-Morpholino-2-nitrobenzylidene)pyrimidine-2,4,6(1H,3H,5H)-trione] | 178 (≈ 61.8 µg/mL) | 53.4 (≈ 154 µM) | 79 ± 3 | 83 ± 4 | 71 ± 2 | 67 ± 4 | 45 ± 3 | 31 ± 4 | 22 ± 1 | 7 ± 5 | 10 ± 1 | 106 ± 7 | 103 ± 1 | 87 ± 2 | 60 ± 8 | 35 ± 4 | 5 ± 1 | 28 ± 3 | 10 ± 1 | 7 ± 2 | activity at 0.048828 µM (LbDHODH [2]; [4]): 87 ± 1%; activity at 0.0976562 µM (LbDHODH [2]; [4]): 92 ± 1%; activity at 0.195312 µM (LbDHODH [2]; [4]): 94 ± 1%; activity at 0.048828 µM (LbDHODH [2]; [5]): 104 ± 4%; activity at 0.0976562 µM (LbDHODH [2]; [5]): 107 ± 3%; activity at 0.195312 µM (LbDHODH [2]; [5]): 104 ± 3%; activity at 1.5625 µM (LbDHODH [2]; [5]): 85 ± 2%; activity at 6.25 µM (LbDHODH [2]; [5]): 87 ± 2%; activity at 25 µM (LbDHODH [2]; [5]): 67 ± 6%; activity at 100 µM (LbDHODH [2]; [5]): 13 ± 1%; inhibition at 100 µM (LbDHODH [2]): 90 to 93%
4 | O=C1NC(=O)C(=Cc2ccc(-c3ccccc3F)[nH]2)C(=O)N1 [2h, 5-((5-(2-Fluorophenyl)-1H-pyrrol-2-yl)methylene)pyrimidine-2,4,6(1H,3H,5H)-trione] | 4.63 (≈ 1.39 µg/mL) | 1.6 (≈ 5.35 µM) |  |  |  |  |  |  |  |  |  |  |  |  |  |  | > 100 | > 100 | 90 ± 10 | 60 ± 10 | IC50 4 h (LbDHODH [2]; LbDHODH, 4-h preincubation): inactive
5 | O=C1NC(=O)C(=C/C=C/c2ccccc2)C(=O)N1 [2i, (E)-5-(3-Phenylallylidene)pyrimidine-2,4,6(1H,3H,5H)-trione] | 41.4 (≈ 10 µg/mL) | 10 (≈ 41.3 µM) | 71 ± 17 | 72 ± 12 | 17 ± 4 | 11 ± 3 | 12 ± 3 | 4 ± 1 | 7 ± 3 | 4 ± 1 | 6 ± 1 | 51 ± 9 | 38 ± 9 | 10 ± 3 | 4 ± 1 | 16 ± 0.5 | 0.9 ± 0.3 | 0.5 ± 0.1 | 1.1 ± 0.2 | 3 ± 2 | CC50 (THP-1 cells): no cytotoxicity; activity at 0.0976562 µM (LbDHODH [2]; [4]): 80 ± 11%; activity at 0.195312 µM (LbDHODH [2]; [4]): 83 ± 14%; activity at 200 µM (LbDHODH [2]; [4]): 1 ± 0.1%; activity at 0.0976562 µM (LbDHODH [2]; [5]): 94 ± 19%; activity at 0.195312 µM (LbDHODH [2]; [5]): 68 ± 11%; activity at 200 µM (LbDHODH [2]; [5]): 3 ± 0.4%; inhibition at 100 µM (LbDHODH [2]): 97%; Kobs (LbDHODH [3]; inhibitor 0.0975 µM): 0.002849 ± 0.002 s⁻¹; Kobs (LbDHODH [3]; inhibitor 0.195 µM): 0.002994 ± 0.002 s⁻¹; Kobs (LbDHODH [3]; inhibitor 0.390625 µM): 0.003028 ± 0.002 s⁻¹; Kobs (LbDHODH [3]; inhibitor 0.78125 µM): 0.003309 ± 0.002 s⁻¹; Kobs (LbDHODH [3]; inhibitor 1.5625 µM): 0.003849 ± 0.002 s⁻¹; Kobs (LbDHODH [3]; inhibitor 3.125 µM): 0.005668 ± 0.003 s⁻¹; Kobs (LbDHODH [3]; inhibitor 6.25 µM): 0.007929 ± 0.002 s⁻¹; Kobs (LbDHODH [3]; inhibitor 12.5 µM): 0.02055 ± 0.002 s⁻¹; Kobs (LbDHODH [3]; inhibitor 25 µM): 0.0045 ± 0.002 s⁻¹; kinact/KI (LbDHODH [3]): 767 M⁻¹ s⁻¹
